How the values were obtained:
[1] = tested on: NFκB-driven transcription in HeLa-NFκB luciferase reporter cell line; assay: NFκB luciferase reporter assay; details: Homo sapiens, HeLa, 16 h, read-out: NFκB-luc HeLa cells EC50 (μM)
Hela cells = assay: In vitro scratch wound healing assay; format: cell-based; details: 24h
Method: Scratch wound healing assay creates a gap by scratching a confluent monolayer of cells to mimic a wound and then measures the ability of cells to fill up the gap (wound) in the presence of DMSO or test compounds. 1.2-1.5×10^5 Hela cells in 1 mL media RPMI-1640 with 10% FBS were seeded in 24-well plates. Cells were starved for overnight in the same media without FBS when cells became confluent. After starvation, a scratch was made in the middle of the well and the plates were washed three times to remove detached cells. DMSO or different concentrations of compounds were diluted and added to the cells. The assay plates were put into Incucyte S3 and scanned with 4× scanner setting regularly. The imaging results were exported and the wound area was analyzed by ImageJ. Wound healing or closure was calculated by the following formula: wound healing %=(wound area at 0h−wound area at 24h)/wound area 0h*100%. Relative wound healing was calculated by dividing wound healing % of compound treatment to that of DMSO*100%.

A549 cell line = assay: Proliferation of A549 (CellTiter Glo); format: cell-based; details: Homo sapiens, A549, 96 h, read-out: IC50 μM (A549 Cell Line)
How it was run: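 A549 cells (K-Ras-mutant NSCLC) were seeded at 1,000 cells/well, allowed 24 h to settle, then exposed for 96 h to 3-fold serially diluted compound (final DMSO ≤0.25%). CellTiter Glo luminescence was read, and inhibition was calculated relative to DMSO-only wells. IC50, relative IC50 and % top inhibition came from curve fitting.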

KP-4 (Pancreatic) = assay: Proliferation of KP-4; format: cell-based; details: read-out: IC50 KP-4 (Pancreatic)
How it was run: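 Luminescent ATP read-out (CellTiter Glo) after 96 h compound exposure gave % inhibition relative to DMSO-treated cells, from which IC50 was fitted. Seeding densities were line-specific, from 800 to 10000 cells/well. Potency across batches was normalised to reference compound K101.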

human PBMC cells = assay: Cytokine/chemokine gene expression in human PBMC (TaqMan); format: cell-based; details: 4 h;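 on Gene Relative Expression CCL2: 2^-ΔΔCt fold change vs DMSO control normalized to 18S and GAPDH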;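 on Gene Relative Expression GM-CSF: 2^-ΔΔCt fold change vs DMSO control normalized to 18S and GAPDH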;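 on Gene Relative Expression IFN-α: 2^-ΔΔCt fold change vs DMSO control normalized to 18S and GAPDH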;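 on Gene Relative Expression IFNγ: 2^-ΔΔCt fold change vs DMSO control normalized to 18S and GAPDH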
Method: Each treatment condition was performed in duplicates.

## CC1=C[C@H]2[C@@]3(O)[C@H](C)C[C@]4(OC(=O)[C@@H](N)CC5CCCCC5)[C@H]([C@@H]3C=C(CO)C[C@]2(O)C1=O)C4(C)C
[1]
  EC50: 0.03 to 0.06 µM
Hela cells; 30 nM
  Relative wound healing to control (%): 123%
Hela cells; 100 nM
  Relative wound healing to control (%): 351%
Hela cells; 300 nM
  Relative wound healing to control (%): 287%
A549 cell line
  IC50: 0.06 to 0.1 µM
KP-4 (Pancreatic)
  IC50: 100 to 200 nM

## CC1=C[C@H]2[C@@]3(O)[C@H](C)C[C@]4(OC(=O)[C@H](N)CCCCCCc5ccccc5)[C@H]([C@@H]3C=C(CO)C[C@]2(O)C1=O)C4(C)C
[1]
  EC50: 0.01 to 0.03 µM
Human PBMC cells; 0.03 μM
  Gene Relative Expression CCL2: 4.55
  Gene Relative Expression GM-CSF: 1.89
  Gene Relative Expression IFN-α: 1.66
  Gene Relative Expression IFNγ: 1.62
  Gene Relative Expression IL-1β: 0.54
  Gene Relative Expression IL-2: 1.71
  Gene Relative Expression IL-6: 0.74
  Gene Relative Expression IL-8: 0.80
  Gene Relative Expression IL-10: 1.27
  Gene Relative Expression IL-12p40: 0.74
  Gene Relative Expression IL-12p70: 1.02
  Gene Relative Expression IL-13: 0.40
  Gene Relative Expression IL-18: 0.47
  Gene Relative Expression ISG15: 0.97
  Gene Relative Expression MIP1a (CCL3): 1.86
  Gene Relative Expression MX1: 0.65
  Gene Relative Expression OAS1: 0.64
  Gene Relative Expression TNF-α: 1.38
Human PBMC cells; 0.10 μM
  Gene Relative Expression CCL2: 3.12
  Gene Relative Expression GM-CSF: 7.74
  Gene Relative Expression IFN-α: 0.73
  Gene Relative Expression IFNγ: 3.47
  Gene Relative Expression IL-1β: 1.58
  Gene Relative Expression IL-2: 7.65
  Gene Relative Expression IL-4: 1.61
  Gene Relative Expression IL-6: 1.14
  Gene Relative Expression IL-8: 0.53
  Gene Relative Expression IL-10: 0.48
  Gene Relative Expression IL-12p40: 0.45
  Gene Relative Expression IL-12p70: 0.93
  Gene Relative Expression IL-13: 47.45
  Gene Relative Expression IL-18: 0.09
  Gene Relative Expression ISG15: 1.16
  Gene Relative Expression MIP1a (CCL3): 2.39
  Gene Relative Expression MX1: 0.72
  Gene Relative Expression OAS1: 0.55
  Gene Relative Expression TNF-α: 4.04
Human PBMC cells; 0.3 μM
  Gene Relative Expression CCL2: 2.09
  Gene Relative Expression GM-CSF: 10.50
  Gene Relative Expression IFN-α: 0.95
  Gene Relative Expression IFNγ: 18.57
  Gene Relative Expression IL-1β: 1.53
  Gene Relative Expression IL-2: 3.41
  Gene Relative Expression IL-4: 2.57
  Gene Relative Expression IL-6: 4.85
  Gene Relative Expression IL-8: 0.59
  Gene Relative Expression IL-10: 0.06
  Gene Relative Expression IL-12p40: 0.69
  Gene Relative Expression IL-12p70: 0.61
  Gene Relative Expression IL-13: 78.90
  Gene Relative Expression IL-18: 0.04
  Gene Relative Expression ISG15: 1.14
  Gene Relative Expression MIP1a (CCL3): 3.37
  Gene Relative Expression MX1: 0.57
  Gene Relative Expression OAS1: 0.42
  Gene Relative Expression TNF-α: 4.13
Hela cells; 10 nM
  Relative wound healing to control (%): 221%
Hela cells; 30 nM
  Relative wound healing to control (%): 239%
Hela cells; 100 nM
  Relative wound healing to control (%): 263%
A549 cell line
  IC50: 0.01 to 0.03 µM
KP-4 (Pancreatic)
  IC50: 30 to 60 nM

## CC1=C[C@H]2[C@@]3(O)[C@H](C)C[C@]4(OC(=O)[C@@H](N)[C@]56C[C@H]7C[C@H](C[C@H](C7)C5)C6)[C@H]([C@@H]3C=C(CO)C[C@]2(O)C1=O)C4(C)C
[1]
  EC50: 0.001 to 0.01 µM
Human PBMC cells; 0.01 μM
  Gene Relative Expression CCL2: 5.58
  Gene Relative Expression GM-CSF: 1.59
  Gene Relative Expression IFN-α: 0.78
  Gene Relative Expression IFNγ: 1.69
  Gene Relative Expression IL-1β: 0.59
  Gene Relative Expression IL-2: 3.06
  Gene Relative Expression IL-4: 0.84
  Gene Relative Expression IL-6: 1.17
  Gene Relative Expression IL-8: 0.71
  Gene Relative Expression IL-10: 1.12
  Gene Relative Expression IL-12p40: 0.89
  Gene Relative Expression IL-12p70: 1.03
  Gene Relative Expression IL-13: 3.10
  Gene Relative Expression IL-18: 0.26
  Gene Relative Expression ISG15: 1.01
  Gene Relative Expression MIP1a (CCL3): 1.65
  Gene Relative Expression MX1: 0.84
  Gene Relative Expression OAS1: 0.74
  Gene Relative Expression TNF-α: 2.39
Human PBMC cells; 0.03 μM
  Gene Relative Expression CCL2: 3.59
  Gene Relative Expression GM-CSF: 8.38
  Gene Relative Expression IFN-α: 0.46
  Gene Relative Expression IFNγ: 3.82
  Gene Relative Expression IL-1β: 2.26
  Gene Relative Expression IL-2: 7.78
  Gene Relative Expression IL-4: 2.54
  Gene Relative Expression IL-6: 0.86
  Gene Relative Expression IL-8: 0.54
  Gene Relative Expression IL-10: 0.41
  Gene Relative Expression IL-12p40: 0.32
  Gene Relative Expression IL-12p70: 0.87
  Gene Relative Expression IL-13: 52.65
  Gene Relative Expression IL-18: 0.06
  Gene Relative Expression ISG15: 1.33
  Gene Relative Expression MIP1a (CCL3): 2.82
  Gene Relative Expression MX1: 1.01
  Gene Relative Expression OAS1: 0.78
  Gene Relative Expression TNF-α: 4.48
Human PBMC cells; 0.10 μM
  Gene Relative Expression CCL2: 0.38
  Gene Relative Expression GM-CSF: 16.06
  Gene Relative Expression IFN-α: 0.31
  Gene Relative Expression IFNγ: 18.08
  Gene Relative Expression IL-1β: 3.00
  Gene Relative Expression IL-2: 3.29
  Gene Relative Expression IL-4: 2.77
  Gene Relative Expression IL-6: 6.72
  Gene Relative Expression IL-8: 0.60
  Gene Relative Expression IL-10: 0.09
  Gene Relative Expression IL-12p40: 0.22
  Gene Relative Expression IL-12p70: 0.76
  Gene Relative Expression IL-13: 101.38
  Gene Relative Expression IL-18: 0.06
  Gene Relative Expression ISG15: 1.54
  Gene Relative Expression MIP1a (CCL3): 5.73
  Gene Relative Expression MX1: 0.99
  Gene Relative Expression OAS1: 0.69
  Gene Relative Expression TNF-α: 6.25
Hela cells; 3 nM
  Relative wound healing to control (%): 191%
Hela cells; 10 nM
  Relative wound healing to control (%): 198%
Hela cells; 30 nM
  Relative wound healing to control (%): 272%
A549 cell line
  IC50: 0.001 to 0.01 µM
KP-4 (Pancreatic)
  IC50: 1 to 10 nM
